Experimental data published in patent publication US10563263B2, “Genetic polymorphisms associated with statin response and cardiovascular diseases, methods of detection and uses thereof” (CELERA CORPORATION, priority 2010, dated 2020).

System: CHD (death from CHD, nonfatal MI, or revascularization)
Assay: WOSCOPS: SNP by pravastatin treatment interaction, logistic regression (synergy index), CHD endpoint
Format: in vivo, human
Settings: for OR (synergy index), WOSCOPS, Prava vs Placebo: CHD endpoint; for OR (synergy index): WOSCOPS
Text: CARE was a secondary prevention trial and WOSCOPS was a primary prevention trial.
The CHD endpoint was defined in the analyses herein of CARE as a composite endpoint of fatal CHD, definite non-fatal MI, or revascularization, and was defined in the analyses herein of WOSCOPS as a composite endpoint of death from CHD, nonfatal MI, or revascularization. In both the CARE and WOSCOPS analyses herein, the CVD endpoint was defined as a composite endpoint of CHD or stroke. […] Revascularization, which can include percutaneous transluminal coronary angioplasty (PTCA), stent placement, and coronary artery bypass graft (CABG), are medical interventions that indicate the presence of CHD.
Cohort and case-only study designs were used to identify SNPs associated with response to statin treatment.
For each SNP, a logistic regression model having treatment status as the dependent variable and SNP as the independent predictor variable was performed, with terms for age, sex and race included in the model as covariates. The anti-log of the regression coefficient corresponding to the SNP is an estimate of the synergy index (SI) (Davis et al., “Imputing gene-treatment interactions when the genotype distribution is unknown using case-only and putative placebo analyses-a new method for the Genetics of Hypertension Associated Treatment (GenHAT) study”, Statistics in Medicine 23: (2004), pages 2413-2427). The SI is a ratio of odds ratios: for example in the CARE and WOSCOPS studies, the SI represents the factor by which the odds-ratio of statin treatment, compared with placebo, among major homozygous individuals is multiplied by in order to obtain the odds-ratio of treatment vs. placebo among heterozygous individuals; and multiplied by a second time to obtain the odds-ratio of treatment vs. placebo in minor homozygous individuals. The case-only study design results in a valid estimate of the SI under the assumption that genotype and treatment are independent in the population. In a randomized clinical trial, genotype and treatment are independent by design. The p-value for the regression coefficient corresponding to the SNP results from a test of the null hypothesis that the regression coefficient is equal to zero (SI is equal to one) and thus small p-values indicate the SI is unlikely equal to one and that the effect of treatment likely differs by genotype. […]

CC[C@H](C)C(=O)O[C@H]1C[C@H](O)C=C2C=C[C@H](C)[C@H](CC[C@@H](O)C[C@@H](O)CC(=O)O)[C@H]21 [Pravastatin, pravastatin]
OR (synergy index), WOSCOPS, Prava vs Placebo (SNP rs198462 (A1 G, A2 A), rec model, Caseonly): 2.12 | OR (synergy index), WOSCOPS, Prava vs Placebo (SNP rs198476 (A1 G, A2 A), rec model, cohort): 1.61 | OR (synergy index), WOSCOPS, Prava vs Placebo (SNP rs471579 (A1 A, A2 C), add model, Caseonly): 1.62 | OR (synergy index), WOSCOPS, Prava vs Placebo (SNP rs1324012 (A1 A, A2 G), add model, Caseonly): 0.60 | OR (synergy index), WOSCOPS, Prava vs Placebo (SNP rs1917527 (A1 A, A2 C), rec model, Caseonly): 0.73 | OR (synergy index), WOSCOPS, Prava vs Placebo (SNP rs7873371 (A1 A, A2 G), add model, Caseonly): 1.59 | OR (synergy index) (rs992695, Imputed, allele (A1) C, model ADD, NMISS 431): 0.7364 | OR (synergy index) (rs992695, Imputed, allele (A1) C, model DOM, NMISS 431): 0.6065 | OR (synergy index) (rs9881685, Imputed, allele (A1) A, model ADD, NMISS 431): 0.4853 | OR (synergy index) (rs9881685, Imputed, allele (A1) A, model DOM, NMISS 431): 0.4903 | OR (synergy index) (rs9936999, Imputed, allele (A1) G, model DOM, NMISS 249): 1.779 | WOSCOPS OR (rs1948, source CaseOnly, model dom, endpoint CHD): 1.96 | WOSCOPS OR (rs198476, Source cohort): 1.61 | WOSCOPS OR (rs238272, source CaseOnly, model add, endpoint CHD): 1.46 | WOSCOPS OR (rs264122, Source cohort): 0.66 | OR (synergy index) (rs483159 allele T, DOM model, Imputed): 1.412 | OR (synergy index) (rs489441 allele G, ADD model, Imputed): 1.6 | OR (synergy index) (rs489441 allele G, DOM model, Imputed): 1.651 | WOSCOPS OR (rs694780, Source caseonly): 0.62 | WOSCOPS OR (rs842796, source CaseOnly, model dom, endpoint CHD): 1.38 | WOSCOPS OR (rs886469, source CaseOnly, model dom, endpoint CHD): 0.55 | WOSCOPS OR (rs912366, source CaseOnly, model dom, endpoint CHD): 1.79 | WOSCOPS OR (rs969356, source CaseOnly, model dom, endpoint CHD): 0.54 | WOSCOPS OR (rs1009748, Source cohort): 1.35 | WOSCOPS OR (rs1015199, Source caseonly): 1.66 | WOSCOPS OR (rs1190706, Source cohort): 0.70 | WOSCOPS OR (rs1336400, Source caseonly): 1.35 | WOSCOPS OR (rs1538185, source cohort, model dom, endpoint CHD): 1.41 | WOSCOPS OR (rs1544214, source CaseOnly, model add, endpoint CHD): 1.35 | WOSCOPS OR (rs1615197, source CaseOnly, model dom, endpoint CHD): 2.25 | WOSCOPS OR (rs1705244, source CaseOnly, model dom, endpoint CHD): 0.52 | WOSCOPS OR (rs1864924, source CaseOnly, model add, endpoint CHD): 1.36 | WOSCOPS OR (rs1877986, source cohort, model dom, endpoint CHD): 0.71 | WOSCOPS OR (rs1884897, source CaseOnly, model rec, endpoint CHD): 1.78 | WOSCOPS OR (rs2008165, source cohort, model add, endpoint CHD): 0.62 | WOSCOPS OR (rs2069542, source CaseOnly, model add, endpoint CHD): 1.49 | WOSCOPS OR (rs2104506, source CaseOnly, model add, endpoint CHD): 0.65 | WOSCOPS OR (rs2108425, Source caseonly): 0.62 | WOSCOPS OR (rs2263901, source CaseOnly, model add, endpoint CHD): 1.57 | WOSCOPS OR (rs2263920, source CaseOnly, model rec, endpoint CHD): 0.41 | WOSCOPS OR (rs2265346, source CaseOnly, model dom, endpoint CHD): 0.42 | WOSCOPS OR (rs2273816, source CaseOnly, model add, endpoint CHD): 1.69 | WOSCOPS OR (rs2274473, source CaseOnly, model dom, endpoint CHD): 0.48 | WOSCOPS OR (rs2327412, Source caseonly): 1.41 | WOSCOPS OR (rs2418412, source cohort, model rec, endpoint CHD): 1.58 | WOSCOPS OR (rs2616548, Source caseonly): 1.37 | WOSCOPS OR (rs2648694, Source caseonly): 2.29 | WOSCOPS OR (rs2655222, Source caseonly): 0.20 | WOSCOPS OR (rs2941528, source CaseOnly, model add, endpoint CHD): 0.58 | WOSCOPS OR (rs2993156, Source caseonly): 0.76 | WOSCOPS OR (rs3732788, source CaseOnly, model add, endpoint CHD): 0.44 | WOSCOPS OR (rs3759607, source CaseOnly, model dom, endpoint CHD): 1.73 | WOSCOPS OR (rs3763978, Source cohort): 0.68 | WOSCOPS OR (rs3998860, source CaseOnly, model add, endpoint CHD): 0.70 | WOSCOPS OR (rs4240808, Source caseonly): 0.61 | WOSCOPS OR (rs4242281, Source caseonly): 1.46 | OR (synergy index) (rs4315598 allele T, ADD model, Imputed): 1.407 | OR (synergy index) (rs4315598 allele T, REC model, Imputed): 1.414 | OR (synergy index) (rs4321395 allele A, DOM model, Imputed): 0.5278 | OR (synergy index) (rs4321596 allele T, REC model, Genotyped): 3.01 | OR (synergy index) (rs4324417 allele T, DOM model, Imputed): 1.541 | OR (synergy index) (rs4328619 allele G, DOM model, Genotyped): 0.6446 | OR (synergy index) (rs4338909 allele T, ADD model, Imputed): 1.42 | OR (synergy index) (rs4370878 allele G, DOM model, Imputed): 1.497 | OR (synergy index) (rs4379434 allele T, DOM model, Genotyped): 1.603 | OR (synergy index) (rs4416407 allele T, DOM model, Imputed): 1.502 | OR (synergy index) (rs4417899 allele C, REC model, Imputed): 0.6657 | WOSCOPS OR (rs4420312, Source caseonly): 0.64 | OR (synergy index) (rs4442732 allele A, ADD model, Imputed): 0.7543 | OR (synergy index) (rs4444612 allele G, ADD model, Imputed): 1.407 | OR (synergy index) (rs4444612 allele G, REC model, Imputed): 1.414 | OR (synergy index) (rs4450660 allele C, DOM model, Imputed): 1.776 | OR (synergy index) (rs4509702 allele C, DOM model, Imputed): 1.497 | OR (synergy index) (rs4533145 allele T, DOM model, Imputed): 0.6617 | OR (synergy index) (rs4557006 allele A, DOM model, Imputed): 0.5409 | OR (synergy index) (rs4570530 allele C, DOM model, Imputed): 1.497 | OR (synergy index) (rs4615971 allele C, DOM model, Imputed): 1.474 | OR (synergy index) (rs4628119 allele A, DOM model, Imputed): 0.5304 | OR (synergy index) (rs4664443 allele G, ADD model, Imputed): 0.6931 | WOSCOPS OR (rs4682522, source CaseOnly, model dom, endpoint CHD): 0.49 | OR (synergy index) (rs4688259 allele T, DOM model, Imputed): 1.502 | OR (synergy index) (rs4688632 allele G, REC model, Imputed): 0.6718 | OR (synergy index) (rs4695284 allele A, ADD model, Imputed): 1.566 | OR (synergy index) (rs4700302 allele A, ADD model, Imputed): 0.5418 | OR (synergy index) (rs4702720 allele A, ADD model, Imputed): 0.7075 | OR (synergy index) (rs4702720 allele A, DOM model, Imputed): 0.7149 | OR (synergy index) (rs4714484 allele A, ADD model, Imputed): 0.5609
